Measured values: publication PMC12390941, “Ubiquitin-specific protease 7-mediated stabilization of discoidin domain receptor 1 drives progression of TP53-Mutant cancers” (The Journal of Biological Chemistry, 2025)
Read-outs that look alike come from different tables or passages of the source.

Columns and labels:
USP7 = USP7 (Homo sapiens, UniProt Q93009); test: biochemical
USP2 = USP2 (Homo sapiens, UniProt O75604); test: selectivity panel of […] purified DUBs, ubiquitin-AMC substrate; type: biochemical
USP11 = USP11 (Homo sapiens, UniProt P51784); test: selectivity panel of […] purified DUBs, ubiquitin-AMC substrate; ABPP DUBome; type: biochemical
USP1 = biological target: T1, USP1 (Homo sapiens, UniProt O94782); test: as above; type: biochemical
T1 sequence (O94782 1-785): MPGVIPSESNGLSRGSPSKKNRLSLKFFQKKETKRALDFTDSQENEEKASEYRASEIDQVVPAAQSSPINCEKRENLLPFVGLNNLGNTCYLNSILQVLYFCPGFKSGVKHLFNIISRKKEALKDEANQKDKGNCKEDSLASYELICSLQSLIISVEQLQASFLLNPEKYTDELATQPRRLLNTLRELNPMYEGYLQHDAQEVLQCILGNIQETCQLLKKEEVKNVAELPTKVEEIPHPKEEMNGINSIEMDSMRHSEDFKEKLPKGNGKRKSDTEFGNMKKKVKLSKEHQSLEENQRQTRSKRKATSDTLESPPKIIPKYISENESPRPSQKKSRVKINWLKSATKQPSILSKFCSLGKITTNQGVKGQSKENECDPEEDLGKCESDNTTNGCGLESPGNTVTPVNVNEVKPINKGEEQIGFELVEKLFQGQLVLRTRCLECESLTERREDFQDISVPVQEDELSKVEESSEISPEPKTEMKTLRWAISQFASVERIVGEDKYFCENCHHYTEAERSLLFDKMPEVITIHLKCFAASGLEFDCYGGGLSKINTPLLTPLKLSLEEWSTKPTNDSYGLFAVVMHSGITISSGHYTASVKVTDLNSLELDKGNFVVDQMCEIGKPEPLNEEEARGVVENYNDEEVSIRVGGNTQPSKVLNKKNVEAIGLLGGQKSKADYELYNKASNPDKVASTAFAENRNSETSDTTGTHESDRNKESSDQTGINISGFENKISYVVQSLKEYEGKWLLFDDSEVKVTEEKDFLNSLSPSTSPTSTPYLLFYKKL

Sequence of USP7 (Q93009 whole entry): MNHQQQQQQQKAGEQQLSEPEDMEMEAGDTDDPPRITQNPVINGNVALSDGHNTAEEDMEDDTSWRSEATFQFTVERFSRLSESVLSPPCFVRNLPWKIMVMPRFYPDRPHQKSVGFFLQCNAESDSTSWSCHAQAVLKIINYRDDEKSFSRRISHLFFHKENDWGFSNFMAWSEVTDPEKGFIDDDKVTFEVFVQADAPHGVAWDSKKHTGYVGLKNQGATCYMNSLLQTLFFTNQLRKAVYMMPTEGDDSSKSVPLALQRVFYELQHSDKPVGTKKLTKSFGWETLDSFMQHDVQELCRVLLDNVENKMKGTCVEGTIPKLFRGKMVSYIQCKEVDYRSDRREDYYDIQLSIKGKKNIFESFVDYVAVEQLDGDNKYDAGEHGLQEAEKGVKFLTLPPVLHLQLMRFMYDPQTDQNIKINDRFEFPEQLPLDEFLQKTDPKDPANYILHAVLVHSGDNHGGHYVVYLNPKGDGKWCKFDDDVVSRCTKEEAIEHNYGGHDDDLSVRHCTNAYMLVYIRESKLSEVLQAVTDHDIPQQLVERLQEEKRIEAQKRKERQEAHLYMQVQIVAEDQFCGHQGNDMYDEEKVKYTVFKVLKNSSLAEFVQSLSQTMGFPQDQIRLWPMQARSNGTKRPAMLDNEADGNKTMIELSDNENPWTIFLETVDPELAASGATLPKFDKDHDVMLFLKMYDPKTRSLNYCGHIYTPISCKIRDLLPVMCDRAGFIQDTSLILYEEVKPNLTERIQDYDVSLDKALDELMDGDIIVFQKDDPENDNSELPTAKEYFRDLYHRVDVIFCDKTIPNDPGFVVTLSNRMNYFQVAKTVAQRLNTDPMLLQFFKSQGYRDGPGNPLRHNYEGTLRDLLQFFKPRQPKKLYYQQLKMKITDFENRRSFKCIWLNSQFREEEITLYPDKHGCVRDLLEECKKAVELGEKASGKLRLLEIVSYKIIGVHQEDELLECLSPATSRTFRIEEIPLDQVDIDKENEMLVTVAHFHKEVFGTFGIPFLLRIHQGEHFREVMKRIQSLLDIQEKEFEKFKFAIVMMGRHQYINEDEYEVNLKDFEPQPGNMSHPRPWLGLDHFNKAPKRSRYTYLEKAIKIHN
Sequence of USP2 (O75604 whole entry): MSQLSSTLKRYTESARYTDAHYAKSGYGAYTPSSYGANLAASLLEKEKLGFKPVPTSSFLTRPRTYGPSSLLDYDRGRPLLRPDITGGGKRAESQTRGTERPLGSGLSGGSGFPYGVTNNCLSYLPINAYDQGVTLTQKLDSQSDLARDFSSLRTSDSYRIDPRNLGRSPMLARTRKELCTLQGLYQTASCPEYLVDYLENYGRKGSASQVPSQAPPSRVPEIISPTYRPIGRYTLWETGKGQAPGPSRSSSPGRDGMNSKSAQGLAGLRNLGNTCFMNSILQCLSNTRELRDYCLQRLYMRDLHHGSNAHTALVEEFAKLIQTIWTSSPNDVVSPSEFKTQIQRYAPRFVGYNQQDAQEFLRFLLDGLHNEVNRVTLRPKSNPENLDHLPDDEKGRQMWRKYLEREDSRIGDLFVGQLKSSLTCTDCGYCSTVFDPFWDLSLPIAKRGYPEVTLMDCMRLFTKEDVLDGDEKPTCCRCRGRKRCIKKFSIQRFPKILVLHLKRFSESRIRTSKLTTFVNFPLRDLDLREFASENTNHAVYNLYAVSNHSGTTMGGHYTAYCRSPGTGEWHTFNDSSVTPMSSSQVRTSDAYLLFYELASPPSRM
Sequence of USP11 (P51784 whole entry): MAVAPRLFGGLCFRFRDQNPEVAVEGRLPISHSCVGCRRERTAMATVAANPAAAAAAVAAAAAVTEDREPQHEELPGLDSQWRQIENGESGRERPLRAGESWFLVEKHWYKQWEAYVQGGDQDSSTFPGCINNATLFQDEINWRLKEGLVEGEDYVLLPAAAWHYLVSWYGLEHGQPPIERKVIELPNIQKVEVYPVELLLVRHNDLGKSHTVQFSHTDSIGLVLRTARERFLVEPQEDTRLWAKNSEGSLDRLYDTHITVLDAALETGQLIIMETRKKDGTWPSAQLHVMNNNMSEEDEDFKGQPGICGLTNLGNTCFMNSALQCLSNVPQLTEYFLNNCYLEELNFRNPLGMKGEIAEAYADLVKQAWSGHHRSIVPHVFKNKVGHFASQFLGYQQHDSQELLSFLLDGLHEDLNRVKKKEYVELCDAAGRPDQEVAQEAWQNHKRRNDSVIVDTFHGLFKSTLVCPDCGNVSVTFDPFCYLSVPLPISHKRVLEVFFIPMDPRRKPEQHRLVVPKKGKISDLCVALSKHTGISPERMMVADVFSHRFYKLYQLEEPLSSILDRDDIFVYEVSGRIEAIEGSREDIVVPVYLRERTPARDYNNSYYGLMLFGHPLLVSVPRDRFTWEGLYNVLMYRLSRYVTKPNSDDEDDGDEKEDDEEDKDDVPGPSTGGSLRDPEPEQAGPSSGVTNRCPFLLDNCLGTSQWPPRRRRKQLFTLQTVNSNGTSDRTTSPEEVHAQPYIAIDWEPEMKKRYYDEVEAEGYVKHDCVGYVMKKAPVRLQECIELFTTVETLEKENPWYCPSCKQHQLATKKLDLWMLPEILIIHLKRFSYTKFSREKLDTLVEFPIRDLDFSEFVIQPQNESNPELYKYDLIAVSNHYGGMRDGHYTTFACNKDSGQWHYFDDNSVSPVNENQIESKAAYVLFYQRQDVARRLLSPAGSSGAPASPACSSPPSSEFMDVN

SMILES	IC50 (USP7) [µM]	selectivity panel of 41 purified DUBs, ubiquitin-AMC substrate (USP2)	selectivity panel of 41 purified DUBs, ubiquitin-AMC substrate; ABPP DUBome (USP11)	IC50 (USP7; read-out: IC50) [µM]	selectivity panel of 41 purified DUBs, ubiquitin-AMC substrate; ABPP DUBome (USP1)
O=C(C[C@@H](C(F)F)n1ccc(F)n1)N1CCC(O)(Cn2cnc3c(cnn3-c3ccc(F)cc3)c2=O)CC1 [FT671]	0.286				
Cc1ccc(/C=C2\CNC/C(=C\c3ccc(C)cc3)C2=O)cc1 [NSC632839]		This screening identified USP7, USP11, USP2, and USP1 as the key targets.	This screening identified USP7, USP11, USP2, and USP1 as the key targets.	3.82	This screening identified USP7, USP11, USP2, and USP1 as the key targets.
